What was measured:
Human melanocortin (MC5) = molecular target: T1, Human melanocortin (MC5) (Homo sapiens, UniProt P33032); test: Radioligand binding, human melanocortin MC5 membranes, FlashPlate, [125I]-NDP-αMSH; details: compound at 10 μM, [125I]-NDP-αMSH
T1 construct: purchased Perkin Elmer Biosignal
Outline: (§1)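 Cloned human receptor membranes were coated onto FlashPlate wells and incubated with radioligand and compound (added from a 0.5 mM DMSO daughter plate) for 1 hour at room temperature in the dark. Scintillation counting gave percent inhibition, with DMSO defining total and reference ligand defining non-specific binding.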

Mouse urotensin (mUR2) = molecular target: T2, Mouse urotensin (mUR2) (Mus musculus, UniProt Q8VIH9); test: Radioligand binding, mouse urotensin mUR2 membranes, FlashPlate, [125I]-Urotensin II; details: compound at 10 μM; [125I]-Urotensin II
T2 construct: purchased Perkin Elmer Biosignal
T2 sequence (Q8VIH9 1-385): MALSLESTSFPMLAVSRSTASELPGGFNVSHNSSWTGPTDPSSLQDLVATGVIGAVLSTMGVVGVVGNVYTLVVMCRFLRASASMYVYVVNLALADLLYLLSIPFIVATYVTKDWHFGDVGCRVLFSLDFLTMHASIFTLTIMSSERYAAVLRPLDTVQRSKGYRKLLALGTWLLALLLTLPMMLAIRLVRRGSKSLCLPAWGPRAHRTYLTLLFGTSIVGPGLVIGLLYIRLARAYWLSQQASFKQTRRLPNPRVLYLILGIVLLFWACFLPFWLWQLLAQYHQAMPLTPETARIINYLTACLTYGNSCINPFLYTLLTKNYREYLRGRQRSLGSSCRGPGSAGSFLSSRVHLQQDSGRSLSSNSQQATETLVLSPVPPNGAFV
Outline: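 Cloned mouse urotensin (mUR2) receptor membranes from Perkin Elmer Biosignal were immobilized in FlashPlate microplates using a proprietary coating. Each well got 19.5 μl buffer, then 0.5 μl of DMSO, reference ligand, or compound. Adding 5 μl of [125I]-Urotensin II, diluted to 5× final concentration in binding buffer, started binding. Plates were sealed with TopSeal-A and incubated 1 hour at room temperature in the dark. Wells were counted for 30 seconds each on a TopCount after a 60-second delay, and percentage inhibition was calculated.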

Human δ-opioid (DOP) = molecular target: T3, Human δ-opioid (DOP) (Homo sapiens, UniProt P41143); test: Radioligand binding, human δ-opioid (DOP) membranes, FlashPlate, [3H]-Bremazocine; details: compound at 10 μM; [3H]-Bremazocine
T3 construct: purchased Perkin Elmer Biosignal
T3 sequence (P41143 whole entry): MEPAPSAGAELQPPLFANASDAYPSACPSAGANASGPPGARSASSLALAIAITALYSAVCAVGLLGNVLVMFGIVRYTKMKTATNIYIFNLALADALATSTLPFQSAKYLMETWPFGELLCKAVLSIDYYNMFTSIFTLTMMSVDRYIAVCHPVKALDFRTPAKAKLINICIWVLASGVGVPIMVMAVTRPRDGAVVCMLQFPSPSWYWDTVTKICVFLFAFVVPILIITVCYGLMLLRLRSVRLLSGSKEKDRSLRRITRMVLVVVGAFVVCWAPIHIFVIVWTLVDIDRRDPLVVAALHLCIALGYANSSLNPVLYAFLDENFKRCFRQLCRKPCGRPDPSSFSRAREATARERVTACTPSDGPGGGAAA
Outline: as §1

[1] = molecular target: T4, Human neuropeptide Y (NPY-Y1) (Homo sapiens, UniProt P25929); test: Radioligand binding, human neuropeptide Y NPY-Y1 membranes, FlashPlate, [125I]-PYY; details: compound at 10 μM; [125I]-PYY
T4 construct: purchased Perkin Elmer Biosignal
T4 sequence (P25929 1-384): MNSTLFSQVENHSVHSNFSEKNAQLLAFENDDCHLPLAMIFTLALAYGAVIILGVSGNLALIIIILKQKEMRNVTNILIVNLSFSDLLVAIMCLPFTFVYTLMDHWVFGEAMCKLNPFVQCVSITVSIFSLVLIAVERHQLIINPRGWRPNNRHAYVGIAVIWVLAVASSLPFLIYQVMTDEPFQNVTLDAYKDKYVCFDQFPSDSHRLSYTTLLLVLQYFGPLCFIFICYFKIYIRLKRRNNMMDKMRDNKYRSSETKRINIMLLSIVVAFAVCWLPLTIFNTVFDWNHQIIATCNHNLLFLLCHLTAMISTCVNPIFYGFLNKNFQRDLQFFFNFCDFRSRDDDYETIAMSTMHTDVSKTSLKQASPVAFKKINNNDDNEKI
Outline: as §1

Human κ-Opioid (KOP) = molecular target: T5, Human κ-Opioid (KOP) (Homo sapiens, UniProt P41145); test: Radioligand binding, human κ-opioid (KOP) membranes, filtration, [3H]-Diprenorphine; details: compound at 10 μM; [3H]-Diprenorphine
T5 construct: purchased Perkin Elmer Biosignal
T5 sequence (P41145 whole entry): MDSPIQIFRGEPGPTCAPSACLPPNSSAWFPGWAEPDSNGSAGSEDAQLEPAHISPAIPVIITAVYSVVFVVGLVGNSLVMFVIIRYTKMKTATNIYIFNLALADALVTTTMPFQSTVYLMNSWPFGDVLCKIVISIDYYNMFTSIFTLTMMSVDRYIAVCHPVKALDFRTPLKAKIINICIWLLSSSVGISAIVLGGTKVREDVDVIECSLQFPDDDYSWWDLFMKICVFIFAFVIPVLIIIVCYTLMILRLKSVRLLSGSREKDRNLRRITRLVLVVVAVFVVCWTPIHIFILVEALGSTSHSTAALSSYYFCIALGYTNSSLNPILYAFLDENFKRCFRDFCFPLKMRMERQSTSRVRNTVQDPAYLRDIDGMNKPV
Outline: (§2)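 Membranes from cloned human receptors were incubated with compound and radioligand for 1 hour at room temperature. Bound ligand was collected on 0.3% PEI-soaked filters, washed with cold 50 mM Tris-HCl pH 7.4, and counted by scintillation. Percent inhibition was computed against DMSO totals and reference-ligand nonspecific wells.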

Human neurokinin (NK1) = molecular target: T6, Human neurokinin (NK1) (Homo sapiens, UniProt P25103); test: Radioligand binding, human neurokinin NK1 membranes, filtration, [125I]-Substance P; details: compound at 10 μM, [125I]-Substance P
T6 construct: purchased Perkin Elmer Biosignal
T6 sequence (P25103 whole entry): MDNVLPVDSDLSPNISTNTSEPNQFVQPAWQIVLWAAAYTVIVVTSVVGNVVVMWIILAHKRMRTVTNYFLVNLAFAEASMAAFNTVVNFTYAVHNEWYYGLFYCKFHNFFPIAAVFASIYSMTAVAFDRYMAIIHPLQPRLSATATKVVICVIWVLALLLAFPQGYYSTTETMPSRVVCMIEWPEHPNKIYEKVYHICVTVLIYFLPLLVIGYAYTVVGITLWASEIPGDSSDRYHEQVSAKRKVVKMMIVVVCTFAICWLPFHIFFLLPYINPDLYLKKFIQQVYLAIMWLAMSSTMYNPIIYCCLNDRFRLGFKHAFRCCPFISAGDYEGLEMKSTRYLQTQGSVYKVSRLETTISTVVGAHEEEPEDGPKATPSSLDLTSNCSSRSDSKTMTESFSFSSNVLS
Outline: as §2

Human μ-opioid (MOP) = molecular target: T7, Human μ-opioid (MOP) (Homo sapiens, UniProt P35372); test: Radioligand binding, human μ-opioid (MOP) membranes, FlashPlate, [3H]-Naloxone; details: compound at 10 μM, [3H]-Naloxone
T7 construct: purchased Perkin Elmer Biosignal
T7 sequence (P35372 whole entry): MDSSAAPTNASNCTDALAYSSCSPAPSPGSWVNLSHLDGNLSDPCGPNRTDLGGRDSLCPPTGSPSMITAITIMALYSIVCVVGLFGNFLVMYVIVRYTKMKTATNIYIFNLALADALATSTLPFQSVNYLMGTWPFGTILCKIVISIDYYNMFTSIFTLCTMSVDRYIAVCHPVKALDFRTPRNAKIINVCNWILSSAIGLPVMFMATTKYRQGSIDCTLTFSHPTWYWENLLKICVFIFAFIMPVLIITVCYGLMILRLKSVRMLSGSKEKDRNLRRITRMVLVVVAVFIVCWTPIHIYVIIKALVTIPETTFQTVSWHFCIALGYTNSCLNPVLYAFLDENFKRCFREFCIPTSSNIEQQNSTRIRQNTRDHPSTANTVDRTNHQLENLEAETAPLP
Outline: as §1

[2] = molecular target: T8, Human melanin-concentrating hormone (MCH1) (Homo sapiens, UniProt Q99705); test: Radioligand binding, human melanin-concentrating hormone MCH1 membranes, FlashPlate, [125I]-S36057; details: compound at 10 μM, [125I]-S36057
T8 construct: purchased Perkin Elmer Biosignal
T8 sequence (Q99705 whole entry): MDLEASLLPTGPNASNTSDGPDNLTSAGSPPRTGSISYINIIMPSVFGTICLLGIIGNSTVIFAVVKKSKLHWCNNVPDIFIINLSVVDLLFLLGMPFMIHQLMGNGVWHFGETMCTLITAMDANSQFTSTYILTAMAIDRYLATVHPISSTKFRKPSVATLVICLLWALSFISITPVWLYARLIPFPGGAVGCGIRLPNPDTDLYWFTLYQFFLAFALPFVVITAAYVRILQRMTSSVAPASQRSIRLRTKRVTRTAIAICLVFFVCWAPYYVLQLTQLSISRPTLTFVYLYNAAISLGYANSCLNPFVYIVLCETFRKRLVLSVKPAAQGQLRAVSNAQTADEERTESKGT
Outline: as §1

Human Melanocortin (MC4) = molecular target: T9, Human Melanocortin (MC4) (Homo sapiens, UniProt P32245); test: Radioligand binding, human melanocortin MC4 membranes, FlashPlate, [125I]-NDP-αMSH; details: compound at 10 μM, [125I]-NDP-αMSH
T9 construct: purchased Perkin Elmer Biosignal
T9 sequence (P32245 whole entry): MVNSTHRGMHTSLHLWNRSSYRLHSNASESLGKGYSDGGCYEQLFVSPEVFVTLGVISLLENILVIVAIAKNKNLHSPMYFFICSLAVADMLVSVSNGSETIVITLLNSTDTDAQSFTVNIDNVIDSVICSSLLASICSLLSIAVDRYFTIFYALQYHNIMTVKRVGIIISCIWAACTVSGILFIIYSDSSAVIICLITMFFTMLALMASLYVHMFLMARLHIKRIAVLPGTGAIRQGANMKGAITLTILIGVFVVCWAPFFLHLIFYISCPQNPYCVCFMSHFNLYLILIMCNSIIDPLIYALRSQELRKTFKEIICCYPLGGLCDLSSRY
Outline: as §1

Human Melanocortin (MC3) = molecular target: T10, Human Melanocortin (MC3) (Homo sapiens, UniProt P41968); test: Radioligand binding, human melanocortin MC3 membranes, FlashPlate, [125I]-NDP-αMSH; details: compound at 10 μM; [125I]-NDP-αMSH
T10 construct: purchased Perkin Elmer Biosignal
T10 sequence (P41968 whole entry): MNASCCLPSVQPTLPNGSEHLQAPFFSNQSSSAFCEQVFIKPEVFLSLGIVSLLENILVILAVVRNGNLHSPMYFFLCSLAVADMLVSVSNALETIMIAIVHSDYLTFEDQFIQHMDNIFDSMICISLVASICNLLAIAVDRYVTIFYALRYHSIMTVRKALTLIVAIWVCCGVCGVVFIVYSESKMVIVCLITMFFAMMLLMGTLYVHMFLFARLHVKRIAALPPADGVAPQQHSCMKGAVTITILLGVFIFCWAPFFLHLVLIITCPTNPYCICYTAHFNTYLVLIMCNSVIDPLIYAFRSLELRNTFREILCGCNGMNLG
Outline: as §1

Human opioid (ORL1) = molecular target: T11, Human opioid (ORL1) (Homo sapiens, UniProt P41146); test: Radioligand binding, human opioid ORL1 membranes, FlashPlate, [125I]-Nociceptin; details: compound at 10 μM, [125I]-Nociceptin
T11 construct: purchased Perkin Elmer Biosignal
T11 sequence (P41146 whole entry): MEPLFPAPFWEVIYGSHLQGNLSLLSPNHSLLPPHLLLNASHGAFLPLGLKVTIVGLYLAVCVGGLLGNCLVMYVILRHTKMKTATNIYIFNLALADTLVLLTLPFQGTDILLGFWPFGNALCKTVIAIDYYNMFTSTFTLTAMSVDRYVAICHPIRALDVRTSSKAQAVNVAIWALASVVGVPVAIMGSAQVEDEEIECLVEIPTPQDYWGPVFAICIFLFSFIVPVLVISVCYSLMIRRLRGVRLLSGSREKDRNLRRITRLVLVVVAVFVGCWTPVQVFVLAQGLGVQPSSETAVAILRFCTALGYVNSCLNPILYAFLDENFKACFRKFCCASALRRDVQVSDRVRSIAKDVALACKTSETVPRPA
Outline: as §1

T1 sequence (P33032 whole entry): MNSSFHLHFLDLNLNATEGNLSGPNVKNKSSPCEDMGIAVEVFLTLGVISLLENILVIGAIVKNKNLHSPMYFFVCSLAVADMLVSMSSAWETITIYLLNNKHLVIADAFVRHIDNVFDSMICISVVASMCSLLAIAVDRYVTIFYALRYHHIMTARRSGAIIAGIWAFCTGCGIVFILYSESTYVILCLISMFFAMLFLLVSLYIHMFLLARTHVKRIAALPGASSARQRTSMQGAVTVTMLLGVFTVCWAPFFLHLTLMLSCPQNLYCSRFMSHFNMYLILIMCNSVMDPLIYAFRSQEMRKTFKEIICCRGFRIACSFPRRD

SMILES | A5: inhibition of radioligand binding, human melanocortin (MC5) (Human melanocortin (MC5)) | A11: inhibition of radioligand binding, mouse urotensin (mUR2) (Mouse urotensin (mUR2)) | A1: inhibition of radioligand binding, human δ-opioid (DOP) (Human δ-opioid (DOP)) | A9: inhibition of radioligand binding, human neuropeptide Y (NPY-Y1) [1] | A2: inhibition of radioligand binding, human κ-opioid (KOP) (Human κ-Opioid (KOP)) | A8: inhibition of radioligand binding, human neurokinin (NK1) (Human neurokinin (NK1); 10 µM) | A7: inhibition of radioligand binding, human μ-opioid (MOP) (Human μ-opioid (MOP); 10 µM) | A6: inhibition of radioligand binding, human melanin-concentrating hormone (MCH1) [2] | A4: inhibition of radioligand binding, human melanocortin (MC4) (Human Melanocortin (MC4); 10 µM) | A3: inhibition of radioligand binding, human melanocortin (MC3) (Human Melanocortin (MC3)) | A10: inhibition of radioligand binding, human opioid (ORL1) (Human opioid (ORL1); 10 µM) | A8: inhibition of radioligand binding, human neurokinin (NK1) (Human neurokinin (NK1)) | A7: inhibition of radioligand binding, human μ-opioid (MOP) (Human μ-opioid (MOP)) | A6: inhibition of radioligand binding, human melanin-concentrating hormone (MCH1) ([2]; 10 µM) | A4: inhibition of radioligand binding, human melanocortin (MC4) (Human Melanocortin (MC4)) | A10: inhibition of radioligand binding, human opioid (ORL1) (Human opioid (ORL1)) | A5: inhibition of radioligand binding, human melanocortin (MC5) (Human melanocortin (MC5); 10 µM)
NCCC(=O)NC1C(OCc2ccc(Cl)cc2)OC(COCc2ccc(Cl)cc2)C(O)C1OCc1ccccc1 (single isomer, unassigned) [compound 487] | + (“+” indicates greater than 50% inhibition at 10 μM) | − (“−” indicates less than 50% inhibition at 10 μM) | − (“−” indicates less than 50% inhibition at 10 μM) | − (“−” indicates less than 50% inhibition at 10 μM) | − (“−” indicates less than 50% inhibition at 10 μM) | − (“−” indicates less than 50% inhibition at 10 μM) | + (“+” indicates greater than 50% inhibition at 10 μM) | − (“−” indicates less than 50% inhibition at 10 μM) | − (“−” indicates less than 50% inhibition at 10 μM) | − (“−” indicates less than 50% inhibition at 10 μM) | − (“−” indicates less than 50% inhibition at 10 μM) | – | – | – | – | – | –
NCCC(=O)NC1C(OCc2ccc(Cl)cc2)OC(COCc2ccc(Cl)cc2)C(O)C1OCc1ccccc1 (single isomer, unassigned) [compound 488] | + (“+” indicates greater than 50% inhibition at 10 μM) | − (“−” indicates less than 50% inhibition at 10 μM) | − (“−” indicates less than 50% inhibition at 10 μM) | − (“−” indicates less than 50% inhibition at 10 μM) | − (“−” indicates less than 50% inhibition at 10 μM) | + (“+” indicates greater than 50% inhibition at 10 μM) | − (“−” indicates less than 50% inhibition at 10 μM) | − (“−” indicates less than 50% inhibition at 10 μM) | + (“+” indicates greater than 50% inhibition at 10 μM) | − (“−” indicates less than 50% inhibition at 10 μM) | + (“+” indicates greater than 50% inhibition at 10 μM) | – | – | – | – | – | –
NCCCC(=O)NC1C(OCc2ccc(Cl)cc2)OC(COCc2ccc3ccccc3c2)C(O)C1OCc1ccc(Cl)cc1 (single isomer, unassigned) [compound 489] | + (“+” indicates greater than 50% inhibition at 10 μM) | − (“−” indicates less than 50% inhibition at 10 μM) | − (“−” indicates less than 50% inhibition at 10 μM) | − (“−” indicates less than 50% inhibition at 10 μM) | − (“−” indicates less than 50% inhibition at 10 μM) | – | – | – | – | + (“+” indicates greater than 50% inhibition at 10 μM) | – | + (“+” indicates greater than 50% inhibition at 10 μM) | + (“+” indicates greater than 50% inhibition at 10 μM) | − (“−” indicates less than 50% inhibition at 10 μM) | + (“+” indicates greater than 50% inhibition at 10 μM) | + (“+” indicates greater than 50% inhibition at 10 μM) | –
NCCCC(=O)NC1C(OCc2ccc(Cl)cc2)OC(COCc2ccc3ccccc3c2)C(O)C1OCc1ccc(Cl)cc1 (single isomer, unassigned) [compound 490] | + (“+” indicates greater than 50% inhibition at 10 μM) | − (“−” indicates less than 50% inhibition at 10 μM) | − (“−” indicates less than 50% inhibition at 10 μM) | − (“−” indicates less than 50% inhibition at 10 μM) | − (“−” indicates less than 50% inhibition at 10 μM) | – | – | – | – | + (“+” indicates greater than 50% inhibition at 10 μM) | – | + (“+” indicates greater than 50% inhibition at 10 μM) | + (“+” indicates greater than 50% inhibition at 10 μM) | + (“+” indicates greater than 50% inhibition at 10 μM) | + (“+” indicates greater than 50% inhibition at 10 μM) | + (“+” indicates greater than 50% inhibition at 10 μM) | –
NCCCC(=O)NC1C(OCc2ccc(Cl)cc2)OC(COCc2ccccc2)C(O)C1OCc1ccc(Cl)cc1 (single isomer, unassigned) [compound 491] | – | − (“−” indicates less than 50% inhibition at 10 μM) | − (“−” indicates less than 50% inhibition at 10 μM) | − (“−” indicates less than 50% inhibition at 10 μM) | − (“−” indicates less than 50% inhibition at 10 μM) | – | – | – | − (“−” indicates less than 50% inhibition at 10 μM) | − (“−” indicates less than 50% inhibition at 10 μM) | – | + (“+” indicates greater than 50% inhibition at 10 μM) | − (“−” indicates less than 50% inhibition at 10 μM) | − (“−” indicates less than 50% inhibition at 10 μM) | – | + (“+” indicates greater than 50% inhibition at 10 μM) | − (“−” indicates less than 50% inhibition at 10 μM)

— US20080009418A1, “Selective Inhibitors” (Alchemia LTD., priority 2004, published 2008)
